Test results as given in ChEMBL document CHEMBL1201862, “PubChem BioAssay data set” (2004).
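These data come from cells grown in 96-well plates and exposed to compound for 48 hours at five concentrations. GI50: concentration for 50% inhibition of growth.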 Active and inactive are the calls of the source. Cut-off read from the data, not from the text of the source: active = GI50 up to about 1.1 µM and inactive = higher.

How the values were obtained:
Experiment in all cases: growth of human tumour cells (NCI), 48 h
[1] = tested on: BT-549
[2] = tested on: CAKI-1
[3] = tested on: HCC 2998
[4] = tested on: HOP-62
[5] = tested on: Hs-578T
[6] = tested on: LOX IMVI
[7] = tested on: MDA-MB-231
[8] = tested on: Malme-3M
[9] = tested on: NCI-H226
[10] = tested on: NCI/ADR-RES
[11] = tested on: OVCAR-3
[12] = tested on: RPMI-8226
[13] = tested on: RXF 393
[14] = tested on: UACC-257
[15] = tested on: K562
[16] = tested on: NCI-H522
[17] = tested on: SR
[18] = tested on: DMS-273
[19] = tested on: M19-MEL

Measured: GI50

Cc1cn(Cc2cnnn2CC2OC(n3cc(C)c(=O)[nH]c3=O)CC2O)c(=O)[nH]c1=O (stereo not drawn)
inactive: [1] > 100 µM | [2] > 100 µM | [3] > 100 µM | [4] > 100 µM | [5] > 100 µM | [6] > 100 µM | [7] > 100 µM | [8] > 100 µM | [9] > 100 µM | [10] > 100 µM | [11] > 100 µM | [12] > 100 µM | [13] > 100 µM | [14] > 100 µM

O=c1c(-c2ccccc2)c(SCCCN2CCCCC2)n(-c2ccccc2)c(=S)n1-c1ccccc1
inactive: [1] 18 µM | [2] 19.5 µM | [3] 3.83 µM | [4] 17.8 µM | [5] 34.2 µM | [15] 14.1 µM | [6] 16.3 µM | [7] 14.5 µM | [8] 21.5 µM | [9] 15.3 µM | [16] 22.4 µM | [10] 16.5 µM | [11] 18.2 µM | [12] 17 µM | [13] 14.3 µM | [17] 16.2 µM | [14] 16.8 µM

FC(F)(F)C(C1=NC(C(F)(F)F)(C(F)(F)F)N=C(N2CCOCC2)O1)C(F)(F)F
inactive: [1] 17.9 µM | [2] 23.2 µM | [3] 41.5 µM | [5] 32.4 µM | [6] 17.8 µM | [7] 14.4 µM | [16] 20.2 µM | [10] 16.6 µM | [11] 25.5 µM | [12] 20.8 µM | [13] 15.7 µM | [17] 18.8 µM | [14] 20.8 µM

Cc1ccc([N+](=O)[O-])cc1NC(=O)C(=O)C(C(=O)c1ccccc1F)C1OC(=O)c2ccccc21 (stereo not drawn)
inactive: [2] 53.8 µM | [18] 36.3 µM | [3] 29.7 µM | [4] 40.7 µM | [15] 32.7 µM | [6] 27.5 µM | [19] 33.4 µM | [9] 16 µM | [16] 20.3 µM | [12] 29.4 µM | [13] 20.5 µM | [17] 30.3 µM | [14] > 100 µM

O=C(c1cccs1)N(C(=S)OC12CC3CC(CC(C3)C1)C2)c1ccccc1
inactive: [1] 35.3 µM | [2] 28.3 µM | [3] 32.6 µM | [4] 47.6 µM | [5] 32 µM | [15] 26.8 µM | [6] 22.5 µM | [7] 30 µM | [8] 43.2 µM | [9] 33.3 µM | [16] 17.2 µM | [10] 29.6 µM | [11] 34.6 µM | [13] 62.2 µM | [17] 25.2 µM | [14] 39.5 µM
